Read-outs that look alike come from different tables or passages of the source.
Experiments:
adult bed bugs [1] = system: adult bed bugs
Procedure: This example illustrates the dry residual pesticidal activity of formulations comprising further pesticidal natural oils (thyme, garlic and neem oils) with acetophenone as the polar aromatic solvent. Solutions were prepared using 5.5% by weight natural oil; the percentage by weight of organic solvent indicated in Table 20 and an appropriate amount of isopropanol as a carrier diluent. Solvent was added to a final concentration of 1.5 mol/kg. Solutions were also prepared of each natural oil alone (5.5% by weight with an appropriate amount of isopropanol as a carrier diluent), and of the polar organic solvent alone (the percent by weight indicated in Table 20 with an appropriate amount of isopropanol as a carrier diluent). Treated Groups for each solution were prepared by treating filter paper, 90 mm in diameter, with 1.0 mL of solution and allowing it to air dry for four hours. A known number of adults (usually 10) were added to each treated dish, four hours after treatment. Bed bug mortality was assessed immediately after infestation and at 1-hour, 2-hour, 4-hour, 6-hour, 8-hour, 10 hour, 12-hour, and 24-hour intervals, and at 24-hour intervals thereafter until 14 days after infestation. Adult bed bugs were counted dead if they were unresponsive when stimulated.

bed bug eggs [2] = assay type: in vivo, Cimex lectularius L.; details: […] neem oil + named solvent in isopropanol; 4 h dried residue; 3 weeks after infestation
Source text: Immediately after infestation, and at 1-, 2-, and 3-week intervals thereafter, the numbers of hatched and unhatched eggs present in the sealed dishes were counted and compared to other Treated Groups. One egg was counted as “hatched” for every new nymph present in the petri dish when compared with the prior interval. Table 13 compares the % egg eclosion of the treated groups at the 3-week observation interval. The maximum mortality data obtained in Example 3, above, are included for comparison purposes.

adult bed bugs [3] = assay type: in vivo; details: […] neem oil + […] named solvent in isopropanol, 4 h dried residue
adult bed bugs [4] = system: adult bed bugs; remark: listed apart in the source
Procedure: This example illustrates the dry residual pesticidal activity of formulations comprising varying pesticidal natural oils (oregano, clove and cinnamon oils) with acetophenone as the polar aromatic solvent. Solutions were prepared using 5.5% by weight natural oil; the percent by weight of acetophenone indicated in Table 19 and an appropriate amount of isopropanol as a carrier diluent. The percent by weight of solvent was at a final concentration of 1.5 mol/kg. Solutions were also prepared of each natural oil alone (5.5% by weight with an appropriate amount of isopropanol as a carrier diluent), and of acetophenone alone (the percent by weight indicated in Table 19 with an appropriate amount of isopropanol as a carrier diluent). Treated Groups for each solution were prepared by treating filter paper, 90 mm in diameter, with 1.0 mL of solution and allowing it to air dry for four hours. A known number of adults (usually 10) were added to each treated dish, four hours after treatment. Bed bug mortality was assessed immediately after infestation and at 1-hour, 2-hour, 4-hour, 6-hour, 8-hour, 10 hour, 12-hour, and 24-hour intervals, and at 24-hour intervals thereafter until 14 days after infestation. Adult bed bugs were counted dead if they were unresponsive when stimulated.

adult bed bugs [5] = details: for LT50: 2 h dried residue on filter paper; for Max Mortality: 2 h dried residue, observed until 33 days
Procedure: 1.0 mL of each solution was applied to three replicates of filter paper, 90 millimeters in diameter, contained in petri dishes (Treated Groups). Treated Groups and three replicates of an untreated Control Group were allowed to dry for two hours prior to infestation with a known number of adult bed bugs (approximately half male and half female).
Bed bug mortality was assessed immediately after infestation and at 2-, 4-, 8-, 12-, and 24-hour intervals after infestation, and daily thereafter until 33 days after infestation. Adult bed bugs were counted dead if they were unresponsive when stimulated.

bed bug eggs [6] = assay: Prevention of egg emergence by various pesticidal natural oils (Example 11); assay type: in vivo, Cimex lectularius L.; details: for % Eclosion (3 weeks post-infest.): 2 h dried residue, five eggs
Procedure: Five bed bug eggs were added to each treated dish, two hours after treatment. Immediately after infestation, and at 1-, 2-, and 3-week intervals thereafter, the numbers of hatched and unhatched eggs present in the sealed dishes were counted and compared to other Treated Groups. One egg was counted as “hatched” for every new nymph present in the petri dish when compared with the prior interval. Table 12 compares the mean % egg eclosion of the treated groups at three weeks post-infestation. The maximum mortality data obtained in Example 2, above, are included for each formulation, for comparison purposes.

[7] = 4 h dried residue on filter paper
[8] = […] by weight oil and/or 18.25% w/w acetophenone in isopropanol, 4 h dried residue on filter paper
[9] = time of maximum mortality, 4 h dried residue on filter paper
[10] = […] oil + 5.0% acetophenone + […] sodium lauryl sulphate in water
[11] = […] oil + 5.0% ethyl lactate + […] sodium lauryl sulphate in water

## CC(=O)c1ccccc1 [Acetophenone]
Adult bed bugs [1]; [7]
  LT50: 11 h
Adult bed bugs [1]; [8]
  Max Mortality: 100%
Adult bed bugs [1]; [9]
  Time: 48 h
Bed bug eggs [2]
  % Eclosion: 0%
Adult bed bugs [3]
  Time to Max Mortality: 24 h
Adult bed bugs [3]; observed until 14 days
  Max. Mortality: 100%
Adult bed bugs [4]; [7]
  LT50: 17 h
Adult bed bugs [4]; [8]
  Max Mortality: 100%
Adult bed bugs [4]; [9]
  Time: 53 h

## C=CCc1ccc(O)c(OC)c1 [Eugenol]
Adult bed bugs [5]; [10]
  LT50: 2.82 h
  Max Mortality: 100%
Adult bed bugs [5]; [11]
  LT50: 9.91 h
  Max Mortality: 100%
Bed bug eggs [6]; […] by weight oil with 5.0% acetophenone, all observation intervals
  prevention of egg eclosion: some increased prevention of egg emergence
Bed bug eggs [6]; […] oil + 5.0% acetophenone in water
  % Eclosion (3 weeks post-infest.): 20%
Bed bug eggs [6]; […] oil + 5.0% ethyl lactate in water
  % Eclosion (3 weeks post-infest.): 40%
Bed bug eggs [6]; […] oil combined with 15.5% acetophenone by weight
  prevention of egg eclosion: complete prevention of egg eclosion

## Cinnamon Oil
Adult bed bugs [1]; in vivo
  Max Mortality: 100%
Adult bed bugs [4]; in vivo
  Max Mortality: 90%
